Data: US20170056351A1, “COMPOSITION FOR INDUCING TUMOR IMMUNITY” (UNIVERSITY OF OCCUPATIONAL AND ENVIRONMENTAL HEALTH, JAPAN, priority 2014, published 2017)

Legend:
9L cells = experiment: Intracellular localization of ROS 12 hours after ionizing radiation (DCFD, confocal laser scanning microscope), 9L; type: cell-based, rat; conditions: pre-treatment with 1 mM 5-ALA 4 hours before 10 Gy, 12 hours after irradiation, vs no 5-ALA
Protocol: Intracellular ROS production was detected by our method using DCFD and a confocal laser scanning microscope (LMS5 Pascal; Carl Zeiss, Jena, Germany) (Yamamoto J, Ogura S, Tanaka T, et al: Radiosensitizing effect of 5-aminolevulinic acid-induced protoporphyrin IX in glioma cells in vitro. Oncol Rep 27: 1748-1752, 2012.). Briefly, the cells were seeded in a fresh medium containing 1 mM 5-ALA in a 35-mm glass-bottom culture dish (Asahi Techno Glass, Tokyo, Japan), and were then incubated at 37° C. for 4 hours in a dark room. Thereafter, the cells were washed with PBS, and were then exposed to an ionizing radiation of 10 Gy. Twelve hours after the ionizing irradiation, the cells were washed with PBS twice, and were then incubated together with 10 μM DCFD for 15 minutes. Thereafter, the cells were washed with PBS twice, and immediately after the washing, the resulting cells were observed. DCFD fluorescence (excitation: 488 nm; radiation: 505-530 nm band-pass filter) was imaged on a confocal laser scanning microscope. All procedures were carried out in a dark room.

U251 cells = experiment: Cellular ROS levels after ionizing irradiation (DCFD, flow cytometry), U251; type: cell-based, human; conditions: for relative MFI of DCF fluorescence 12 hours after ionizing irradiation, timing study: 10 Gy
Protocol: Intracellular ROS production was evaluated using the oxidant-sensitive fluorescence probe DCFD and flow cytometry (Yamamori T, Yasui H, Yamazumi M, et al: Ionizing radiation induces mitochondrial reactive oxygen species production accompanied by upregulation of mitochondrial electron transport chain function and mitochondrial content under control of the cell cycle checkpoint. Free Radic Biol Med 53: 260-270, 2012.). The cells were seeded on a 100-mm culture dish, and using an X-ray irradiation apparatus (MBR-1520R; Hitachi, Tokyo, Japan) (0.67 Gy/min), the cells were then irradiated with a radiation of 10 Gy in a dark room. During the ionizing irradiation, the culture dish was maintained at a room temperature in a dark container. In the case of a 5-ALA and ionizing irradiation group (RT,12 h+ALA), the cells were treated with 1 mM 5-ALA for 4 hours, then, immediately after the treatment, the cells were irradiated with ionizing radiation, and were then incubated together with 10 μM DCFD at 37° C. for 15 minutes, followed by washing with PBS twice. Thereafter, as described above, the cells were analyzed using a flow cytometer (excitation: 488 nm; radiation: 525/50 nm band-pass filter). Control cells were not exposed to ionizing radiation or 5-ALA. In a 5-ALA group, the cells were treated with 1 mM 5-ALA for 4 hours, but were not exposed to ionizing radiation. The control cells and the cells of the 5-ALA group were treated with DCFD in the same manner as described above. In order to prevent the photoactivation of 5-ALA-induced PpIX and DCFD, all procedures were carried out in a dark room. The flow cytometric data were analyzed using FlowJo (Tree Star Inc., Ashland, Oreg., USA). The MFI of the DCF fluorescence in the cells, with respect to that in control cells, was calculated for each cell line.
The cells were seeded on a 100-mm culture dish, and were then exposed to an ionizing radiation of 10 Gy. The incubation time (4 h) of 1 mM 5-ALA was the same among individual groups, and three types of 5-ALA treatment times were initiated: i) 5-ALA treatment immediately before ionizing irradiation [RT+ALA (pre) group]; ii) 5-ALA treatment immediately after ionizing irradiation [RT+ALA (4 h) group]; and iii) 5-ALA treatment 8 hours after ionizing irradiation [RT+ALA (12 h) group]. In each group, twelve hours after the ionizing irradiation, the cells were incubated together with 10 μM DCFD at 37° C. for 15 minutes, and were then washed with PBS twice. Immediately after the washing, as described above, DCF fluorescence was analyzed using a flow cytometer. Control cells were not treated with ionizing radiation or 5-ALA. In a group involving only ionizing irradiation (RT), the cells were exposed to ionizing radiation, without performing 5-ALA treatments, and were then treated with DCFD twelve hours after the exposure to the ionizing radiation in the same manner as described above. All procedures were carried out in a dark room. The flow cytometric data were analyzed using FlowJo software. The MFI of the DCF fluorescence in the cells, with respect to that in control cells, was calculated for each cell line.

**Q.** How did the “DCF fluorescence in the cytoplasm (confocal)” value (9L cells) turn out when NCC(=O)CCC(=O)O [ALA, 5-aminolevulinic acid] was run?
**A.** The value was “apparently increased”.

**Q.** And the “relative MFI of DCF fluorescence (cellular ROS)” value (U251 cells; 1 mM 5-ALA 4 hours, without ionizing irradiation, relative to control cells, average±SE)?
**A.** The value was 0.87±0.06.

**Q.** What about the “relative MFI of DCF fluorescence 12 hours after ionizing irradiation, timing study” value (shortened to “relative MFI … timing study”) (U251 cells; 5-ALA treatment 8 hours after ionizing irradiation, RT+ALA (12 h) group) of the same compound?
**A.** Its value is 1.38±0.05.

**Q.** And the “relative MFI … timing study” value (U251 cells; 5-ALA treatment immediately after ionizing irradiation, RT+ALA (4 h) group)?
**A.** The value was 1.43±0.02.

**Q.** And the “relative MFI … timing study” value (U251 cells; 5-ALA treatment immediately before ionizing irradiation, RT+ALA (pre) group)?
**A.** Its value is 1.44±0.02.

**Q.** What about the “relative MFI of DCF fluorescence (cellular ROS)” value (U251 cells; 12 hours after 10 Gy ionizing irradiation with 5-ALA pre-treatment (1 mM, 4 hours), p=0.031 vs RT 12 h) of the same compound?
**A.** The value was 1.51±0.10.
